As usually defined, the MIC is the lowest concentration found to suppress growth.

≈ marks a conversion by molar mass, not a printed value.

What all share (format): functional
Experiment [1] concerns Pseudomonas aeruginosa. Description: Antimicrobial activity against Pseudomonas aeruginosa PAO1 by CLSI-based broth microdilution method. On the technique in general: In broth dilution the organism is exposed to a series of concentrations in liquid medium.
Experiment [2] relates to Escherichia coli. In words: Antimicrobial activity against tolC deficient Escherichia coli KD65 by CLSI-based broth microdilution method.
Experiment [3] relates to Staphylococcus aureus. Description: Antimicrobial activity against Staphylococcus aureus ATCC 29213 by CLSI-based broth microdilution method.
Where [4] appears, read: Escherichia coli, KD65, read-out: MIC.
Where [5] appears, read: Staphylococcus aureus, ATCC 29213, read-out: MIC.

As to `O=C(O)c1cn(C2CC2)c2c3c(c(F)cc2c1=O)N1CCCC1C(=O)NC3` (stereo not drawn), the MIC is over 64 µg/mL in experiment [1], 8 µg/mL (≈ 21.5 µM) in experiment [2] (setting [4]) and 16 µg/mL (≈ 43.1 µM) in experiment [3] (setting [5]).

On to `O=C(O)c1cn(C2CC2)c2c3c(c(F)cc2c1=O)N1CCCC1C[S+]([O-])C3` (stereo in doubt; 440), for which the MIC in experiment [1] was over 16 µg/mL; in experiment [2], 16 µg/mL (≈ 41 µM); in experiment [3] it was 1 µg/mL (≈ 2.56 µM).

Consider `N[C@H]1C[C@H]2COCc3c(c(F)cc4c(=O)c(C(=O)O)cn(C5CC5)c34)N2C1`, for which the MIC in experiment [1] stood at 0.38 µg/mL (≈ 1.02 µM); in experiment [2] (setting [4]) it was 0.034 µg/mL (≈ 0.0911 µM); in experiment [3] (setting [5]), 0.125 µg/mL (≈ 0.335 µM).

Regarding `O=C(O)c1cn(C2CC2)c2c(cc(F)c3c2nnn3-c2ccc(F)cc2)c1=O`, the MIC in experiment [1] was determined as 40 µg/mL (≈ 105 µM); in experiment [2] (setting [4]), 0.25 µg/mL (≈ 0.654 µM); in experiment [3] (setting [5]) it was 0.06 µg/mL (≈ 0.157 µM).

As to `N[C@H]1C[C@H]2CCOc3c(c(F)cc4c(=O)c(C(=O)O)cn(C5CC5)c34)N2C1`, the MIC came to 0.093 µg/mL (≈ 0.249 µM) in experiment [1], 0.004 µg/mL (≈ 0.0107 µM) in experiment [2] (setting [4]) and 0.015 µg/mL (≈ 0.0402 µM) in experiment [3] (setting [5]).

`N[C@H]1C[C@H]2CCCc3c(c(F)cc4c(=O)c(C(=O)O)cn(C5CC5)c34)N2C1`: the MIC in experiment [1] turned out to be 0.5 µg/mL (≈ 1.35 µM); in experiment [2] (setting [4]), 0.015 µg/mL (≈ 0.0404 µM); in experiment [3] (setting [5]), 0.5 µg/mL (≈ 1.35 µM).

On to `N[C@@H]1CCN2c3c(F)cc4c(=O)c(C(=O)O)cn(C5CC5)c4c3SC[C@H]12`, for which the MIC stood at 4 µg/mL (≈ 10.7 µM) in experiment [1], 0.03 µg/mL (≈ 0.0799 µM) in experiment [2] (setting [4]) and 0.125 µg/mL (≈ 0.333 µM) in experiment [3] (setting [5]).

On to `N[C@@H]1CCN2c3c(F)cc4c(=O)c(C(=O)O)cn(C5CC5)c4c3C=C[C@H]12`, for which the MIC in experiment [1] is over 64 µg/mL; in experiment [2] (setting [4]), 1 µg/mL (≈ 2.81 µM); in experiment [3] (setting [5]), 8 µg/mL (≈ 22.5 µM).

As for `N[C@@H]1CCN2c3c(F)cc4c(=O)c(C(=O)O)cn(C5CC5)c4c3C=CC[C@H]12`, the MIC in experiment [1] was 0.38 µg/mL (≈ 1.03 µM); in experiment [2] (setting [4]), 0.06 µg/mL (≈ 0.162 µM); in experiment [3] (setting [5]), 0.045 µg/mL (≈ 0.122 µM).

With `N[C@H]1CCN2c3c(F)cc4c(=O)c(C(=O)O)cn(C5CC5)c4c3C=CC[C@H]12`, the MIC in experiment [1] was 0.16 µg/mL (≈ 0.433 µM); in experiment [2] (setting [4]), 0.0022 µg/mL (≈ 0.00596 µM); in experiment [3] (setting [5]), 0.007 µg/mL (≈ 0.0189 µM).

With `N[C@H]1C[C@@H]2CCCc3c(c(F)cc4c(=O)c(C(=O)O)cn(C5CC5)c34)N2C1`, the MIC was 0.45 µg/mL (≈ 1.21 µM) in experiment [1], 0.006 µg/mL (≈ 0.0162 µM) in experiment [2] (setting [4]) and 0.038 µg/mL (≈ 0.102 µM) in experiment [3] (setting [5]).

Take `N[C@@H]1CCN2c3c(F)cc4c(=O)c(C(=O)O)cn(C5CC5)c4c3CC[C@H]12`: the figures for the MIC in experiment [1], in experiment [2] (setting [4]) and in experiment [3] (setting [5]) were 0.5 µg/mL (≈ 1.4 µM), 0.004 µg/mL (≈ 0.0112 µM) and 0.03 µg/mL (≈ 0.0839 µM), respectively.

On to `N[C@@H]1C[C@@H]2CC=Cc3c(c(F)cc4c(=O)c(C(=O)O)cn(C5CC5)c34)N2C1`, for which the MIC was determined as 1 µg/mL (≈ 2.71 µM) in experiment [1], 0.125 µg/mL (≈ 0.338 µM) in experiment [2] (setting [4]) and 0.25 µg/mL (≈ 0.677 µM) in experiment [3] (setting [5]).

With `N[C@H]1C[C@@H]2CC=Cc3c(c(F)cc4c(=O)c(C(=O)O)cn(C5CC5)c34)N2C1`, the MIC in experiment [1] is 0.22 µg/mL (≈ 0.596 µM); in experiment [2] (setting [4]), 0.008 µg/mL (≈ 0.0217 µM); in experiment [3] (setting [5]) it was at most 0.06 µg/mL.

Consider `O=C(O)c1cn(C2CC2)c2c3c(c(F)cc2c1=O)N1CCCC1CN=C3` (stereo not drawn), for which the MIC in experiment [1] came to 2 µg/mL (≈ 5.63 µM); in experiment [2] (setting [4]), 0.25 µg/mL (≈ 0.703 µM); in experiment [3] (setting [5]), 0.25 µg/mL (≈ 0.703 µM).

Consider `O=C(O)c1cn(C2CC2)c2c3c(c(F)cc2c1=O)N1CCCC1C[S+]([O-])C3` (stereo in doubt; 441), for which the values for the MIC in experiment [2] and in experiment [3] were 1 µg/mL (≈ 2.56 µM) and 4 µg/mL (≈ 10.2 µM), respectively.

Turning to `C/N=C1/Cc2c(c(F)cc3c(=O)c(C(=O)O)cn(C4CC4)c23)N2CCCC2C1` (stereo not drawn), the MIC in experiment [1] was over 32 µg/mL; in experiment [2] (setting [4]), 0.06 µg/mL (≈ 0.156 µM); in experiment [3] (setting [5]), 0.25 µg/mL (≈ 0.652 µM).

Regarding `O=C(O)c1cn(C2CC2)c2c3c(c(F)cc2c1=O)N1CCCC1CCO3` (stereo not drawn), the MIC stood at 21 µg/mL (≈ 58.6 µM) in experiment [1], 0.008 µg/mL (≈ 0.0223 µM) in experiment [2] (setting [4]) and 0.21 µg/mL (≈ 0.586 µM) in experiment [3] (setting [5]).

On to `O=C(O)c1cn(C2CC2)c2c3c(c(F)cc2c1=O)N1CCCC1CS(=O)(=O)C3` (stereo not drawn), for which the MIC is over 64 µg/mL in experiment [1], 0.25 µg/mL (≈ 0.615 µM) in experiment [2] (setting [4]) and 1 µg/mL (≈ 2.46 µM) in experiment [3] (setting [5]).

On to `O=C(O)c1cn(C2CC2)c2c3c(c(F)cc2c1=O)N1CCCC1CC=C3` (stereo not drawn), for which the MIC in experiment [1] is 1 µg/mL (≈ 2.82 µM); in experiment [2] (setting [4]) it was 0.03 µg/mL (≈ 0.0847 µM); in experiment [3] (setting [5]), 0.5 µg/mL (≈ 1.41 µM).

With `N[C@@H]1C[C@H]2COCc3c(c(F)cc4c(=O)c(C(=O)O)cn(C5CC5)c34)N2C1`, the MIC in experiment [1] came out at 0.25 µg/mL (≈ 0.67 µM); in experiment [2] (setting [4]), 0.008 µg/mL (≈ 0.0214 µM); in experiment [3] (setting [5]), 0.015 µg/mL (≈ 0.0402 µM).

For the compound `CN1Cc2c(c(F)cc3c(=O)c(C(=O)O)cn(C4CC4)c23)N2CCCC2C1` (stereo not drawn), the MIC is over 64 µg/mL in experiment [1], 2 µg/mL (≈ 5.38 µM) in experiment [2] (setting [4]) and 32 µg/mL (≈ 86.2 µM) in experiment [3] (setting [5]).

As for `N[C@H]1CCN2c3c(F)cc4c(=O)c(C(=O)O)cn(C5CC5)c4c3CCC[C@H]12`, the MIC stood at 0.29 µg/mL (≈ 0.781 µM) in experiment [1], 0.004 µg/mL (≈ 0.0108 µM) in experiment [2] (setting [4]) and 0.015 µg/mL (≈ 0.0404 µM) in experiment [3] (setting [5]).

These data come from ChEMBL document CHEMBL4602605, “Fluoroquinolones structural and medicinal developments (2013-2018): Where are we now?” (Bioorg Med Chem, 2019).
